According to US20240158446A1, “CYCLIC COMPOUND HAVING SELECTIVE INHIBITORY ACTION ON KRAS OVER HRAS AND NRAS” (CHUGAI SEIYAKU KABUSHIKI KAISHA, priority 2021, published 2024):
Like-named read-outs stand apart in the source and are kept apart here. Where a SMILES comes first, the peptide text is derived from it. Bridges are numbered along the chain shown (N, C = ends). [ ]: non-standard residue; d: D form. The star is where a group is joined. hPhe(3,5-F2-4-CF3) = N[C@@H](CCc1cc(F)c(C(F)(F)F)c(F)c1)C(=O)O; NPrPhe(4-CF3) = CCCN[C@@H](Cc1ccc(C(F)(F)F)cc1)C(=O)O; NMeGly(cPent) = CN[C@H](C(=O)O)C1CCCC1; NMeD = CN[C@@H](CC(=O)O)C(=O)O; NMeL = CN[C@@H](CC(C)C)C(=O)O; αMeS = C[C@](N)(CO)C(=O)O; Morpholide = C1CN(*)CCO1; Sar = CNCC(=O)O; tBu = CC(C)(C)*

Tests used:
[1] = biological target: GDP-bound KRAS wild-type protein (Homo sapiens, UniProt P01116); assay: Binding to KRAS by surface plasmon resonance (SPR), Single Cycle Kinetics; conditions: GDP-bound KRAS wild-type protein, read-out: KRAS KD
Chain of GDP-bound KRAS wild-type protein (P01116 whole entry): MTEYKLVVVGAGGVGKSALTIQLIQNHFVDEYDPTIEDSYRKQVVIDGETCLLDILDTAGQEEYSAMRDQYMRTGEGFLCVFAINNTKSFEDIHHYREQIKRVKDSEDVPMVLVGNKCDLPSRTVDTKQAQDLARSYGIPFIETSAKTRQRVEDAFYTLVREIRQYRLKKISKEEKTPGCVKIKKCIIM

[2] = biological target: GDP-bound NRAS wild-type protein (Homo sapiens, UniProt P01111); assay: Binding to NRAS by surface plasmon resonance (SPR), Single Cycle Kinetics; conditions: for NRAS/KRAS (ratio of KD value with respect to GDP-bound NRAS wild-type protein to KD value with respect to KRAS): SPR KD ratio NRAS/KRAS, class symbols
Chain of GDP-bound NRAS wild-type protein (P01111 whole entry): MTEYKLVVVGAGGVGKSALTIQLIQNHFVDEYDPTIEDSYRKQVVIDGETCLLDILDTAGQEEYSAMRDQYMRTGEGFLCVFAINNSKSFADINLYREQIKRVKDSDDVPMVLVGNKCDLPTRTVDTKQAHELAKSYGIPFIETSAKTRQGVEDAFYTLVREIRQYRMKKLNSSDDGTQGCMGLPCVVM

[3] = biological target: GDP-bound HRAS wild-type protein (Homo sapiens, UniProt P01112); assay: Binding to HRAS by surface plasmon resonance (SPR), Single Cycle Kinetics; conditions: for HRAS/KRAS (ratio of KD value with respect to GDP-bound HRAS wild-type protein to KD value with respect to KRAS): SPR KD ratio HRAS/KRAS, class symbols
Chain of GDP-bound HRAS wild-type protein (P01112 whole entry): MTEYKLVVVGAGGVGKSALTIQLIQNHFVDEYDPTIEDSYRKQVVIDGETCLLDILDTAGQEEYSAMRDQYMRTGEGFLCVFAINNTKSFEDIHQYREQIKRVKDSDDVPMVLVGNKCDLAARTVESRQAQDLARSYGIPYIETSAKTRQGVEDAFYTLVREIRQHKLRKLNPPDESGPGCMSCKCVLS

[4] = system: human lung cancer strain NCI-H441;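 further: cell proliferation inhibition after four days measured by CellTiter-Glo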
[5] = SPR Single Cycle Kinetics, 1:1 binding model
[6] = SPR, GDP-bound NRAS wild-type protein vs GDP-bound KRAS wild-type protein
[7] = SPR, GDP-bound HRAS wild-type protein vs GDP-bound KRAS wild-type protein
[8] = SPR, Single Cycle Kinetics, 1:1 binding model
[9] = SPR, GDP-bound NRAS wild-type protein vs GDP-bound KRAS wild-type protein, KD ratio class
[10] = SPR, GDP-bound HRAS wild-type protein vs GDP-bound KRAS wild-type protein, KD ratio class

| Compound | IC50 [4] [nM] | Kd ([1]; SPR, Single Cycle Kinetics) [nM] | NRAS/KRAS (ratio of KD value for NRAS to KD value for KRAS) [2, 6] | HRAS/KRAS (ratio of KD value for HRAS to KD value for KRAS) [3, 7] | also measured |
| --- | --- | --- | --- | --- | --- |
| CCOC[C@H]1C(=O)N[C@@H]([C@@H](C)CC)C(=O)N(C2CC2)CC(=O)N(C)[C@H]2C/C=C\CCN(C2=O)[C@@H](Cc2ccc(C)cc2)C(=O)N(C)CC(=O)N[C@@H](CCc2ccc(C(F)(F)F)c(OC)c2)C(=O)N2C[C@H](OCC)C[C@H]2C(=O)NC2(CC(C)(C)C2)C(=O)N(C)[C@@H](CC(C)(C)C)C(=O)N(C)[C@H](C(=O)N(C)C)CC(=O)N1C [PP2724] | 20 |  |  |  | Kd [1, 5]: 0.43 nM; NRAS/KRAS (ratio of KD value with respect to GDP-bound NRAS wild-type protein to KD value with respect to KRAS) [2]: A (a compound having 10 or more and less than 20 is denoted as A); HRAS/KRAS (ratio of KD value with respect to GDP-bound HRAS wild-type protein to KD value with respect to KRAS) [3]: B (a compound having 3 or more and less than 10 is denoted as B) |
| CCOC[C@H]1C(=O)N[C@@H]([C@@H](C)CC)C(=O)N(C)CC(=O)N(C)[C@H]2C/C=C\CCN(C2=O)[C@@H](Cc2ccc(C)cc2)C(=O)N(C)CC(=O)N[C@@H](CCc2ccc(C(F)(F)F)c(Cl)c2)C(=O)N2C[C@@H](C)C[C@H]2C(=O)NC2(CC(C)(C)C2)C(=O)N(C)[C@@H](C2CCCC2)C(=O)N(C)[C@H](C(=O)N(C)CC)CC(=O)N1C [PP2451] | 8.6 | 0.17 | A (a compound having 10 or more and less than 20 is denoted as A) | A (a compound having 10 or more and less than 20 is denoted as A) |  |
| CCCOC[C@H]1C(=O)N[C@@H]([C@@H](C)CC)C(=O)N(C)CC(=O)N(C)[C@H]2C/C=C\CCN(C2=O)[C@@H](Cc2ccc(C)cc2)C(=O)N(C)CC(=O)N[C@@H](CCc2ccc(C(F)(F)F)c(Cl)c2)C(=O)N2C[C@H](OCC)C[C@H]2C(=O)NC2(CC(C)(C)C2)C(=O)N(C)[C@@H](C2CCCC2)C(=O)N(C)[C@H](C(=O)N(C)CC)CC(=O)N1C [PP2469] | 15.7 | 0.19 | A (a compound having 10 or more and less than 20 is denoted as A) | B (a compound having 3 or more and less than 10 is denoted as B) |  |
| CC[C@H](C)[C@@H]1NC(=O)[C@H](CC2CC2)N(C)C(=O)C[C@@H](C(=O)N(C)C)N(C)C(=O)[C@H](C2CCCC2)N(C)C(=O)C2(CCCC2)NC(=O)[C@@H]2CCCN2C(=O)[C@H](CCc2cc(F)c(C(F)(F)F)c(F)c2)NC(=O)CN(C)C(=O)[C@H](Cc2ccc(C(F)(F)F)cc2)N2C[C@H](C)[C@H](C)C[C@@H](C2=O)N(C)C(=O)CN(C)C1=O [PP1368] | 2.9 |  |  |  | Kd [1, 8]: 0.061 nM; NRAS/KRAS (ratio of KD value for NRAS to KD value for KRAS) [2, 9]: A (a compound having 10 or more and less than 20 is denoted as A); HRAS/KRAS (ratio of KD value for HRAS to KD value for KRAS) [3, 10]: B (a compound having 3 or more and less than 10 is denoted as B) |
| CC[C@H](C)[C@@H]1NC(=O)[C@H](CC)N(C)C(=O)C[C@@H](C(=O)N(C)C)N(C)C(=O)[C@H](C2CCCC2)N(C)C(=O)C2(CCC2)NC(=O)[C@@H]2C[C@@H](OC)CN2C(=O)[C@H](CCc2cc(F)c(C(F)(F)F)c(F)c2)NC(=O)CN(C)C(=O)[C@H](Cc2ccc(C(F)(F)F)cc2)N2CC/C=C\C[C@@H](C2=O)N(C)C(=O)CN(C)C1=O [PP1130, (2S,8S,12R,14S,20S,23S,27S,30S,36S,38Z)-20-cyclopentyl-8-[2-[3,5-difluoro-4-(trifluoromethyl)phenyl]ethyl]-27-ethyl-12-methoxy-N,N,4,19,22,26,32,35-octamethyl-30-[(1S)-1-methylpropyl]-3,6,9,15,18,21,25,28,31,34,42-undecaoxo-2-[[4-(trifluoromethyl)phenyl]methyl]spiro[1,4,7,10,16,19,22,26,29,32,35-undecazatricyclo[34.5.1.0^10,14]dotetracont-38-ene-17,1′-cyclobutane]-23-carboxamide] | 19.6 | 0.035 | A (a compound having 10 or more and less than 20 is denoted as A) | B (a compound having 3 or more and less than 10 is denoted as B) |  |
| CCO[C@@H]1C[C@H]2C(=O)NC3(CCC3)C(=O)N(C)[C@@H](C(CC)CC)C(=O)N(C)[C@H](C(=O)N(C)C)CC(=O)N(C)[C@@H](CC3CCCC3)C(=O)N[C@@H]([C@@H](C)CC)C(=O)N(C)CC(=O)N(C)[C@H]3C/C=C\CCN(C3=O)[C@@H](Cc3ccc(C(F)(F)F)cc3)C(=O)N(C)CC(=O)N[C@@H](CCc3ccc(Cl)c(Cl)c3)C(=O)N2C1 [PP1220] | 22.2 |  |  |  | Kd [1, 8]: 0.57 nM; NRAS/KRAS (ratio of KD value for NRAS to KD value for KRAS) [2, 9]: AA (a compound having 20 or more is denoted as AA); HRAS/KRAS (ratio of KD value for HRAS to KD value for KRAS) [3, 10]: A (a compound having 10 or more and less than 20 is denoted as A) |
| CCCCCC[C@H]1C(=O)N[C@@H]([C@@H](C)CC)C(=O)N(C)CC(=O)N(C)[C@H]2C/C=C\CCN(C2=O)[C@@H](Cc2ccc(C(F)(F)F)cc2)C(=O)N(C)CC(=O)N[C@@H](CCc2ccc(C(F)(F)F)c(OC)c2)C(=O)N2C[C@H](OCC)C[C@H]2C(=O)NC2(CCC2)C(=O)N(C)[C@@H](C2CCCC2)C(=O)N(C)[C@H](C(=O)N(C)C)CC(=O)N1C [PP1246, (2S,8S,12R,14S,20S,23S,27S,30S,36S,38Z)-20-cyclopentyl-12-ethoxy-27-hexyl-8-[2-[3-methoxy-4-(trifluoromethyl)phenyl]ethyl]-N,N,4,19,22,26,32,35-octamethyl-30-[(1S)-1-methylpropyl]-3,6,9,15,18,21,25,28,31,34,42-undecaoxo-2-[[4-(trifluoromethyl)phenyl]methyl]spiro[1,4,7,10,16,19,22,26,29,32,35-undecazatricyclo[34.5.1.0^10,14]dotetracont-38-ene-17,1′-cyclobutane]-23-carboxamide] | 9 |  |  |  | Kd [1, 8]: 0.081 nM; NRAS/KRAS (ratio of KD value for NRAS to KD value for KRAS) [2, 9]: A (a compound having 10 or more and less than 20 is denoted as A); HRAS/KRAS (ratio of KD value for HRAS to KD value for KRAS) [3, 10]: A (a compound having 10 or more and less than 20 is denoted as A) |
| CCC[C@H]1C(=O)N[C@@H]([C@@H](C)CC)C(=O)N(C)CC(=O)N(C)[C@H]2C/C=C\CCN(C2=O)[C@@H](CC2CCC(F)(F)CC2)C(=O)N(C)CC(=O)N[C@@H](CCc2ccc(C(F)(F)F)c(OC)c2)C(=O)N2C[C@H](OCC)C[C@H]2C(=O)NC2(CC(C)(C)C2)C(=O)N(C)[C@@H](C(CC)CC)C(=O)N(C)[C@H](C(=O)N(C)C)CC(=O)N1C [PP2482] | 23.8 | 0.93 | A (a compound having 10 or more and less than 20 is denoted as A) | A (a compound having 10 or more and less than 20 is denoted as A) |  |
| CCC[C@H]1C(=O)N[C@@H](CC(C)C)C(=O)N(C2CC2)CC(=O)N(C)[C@H]2C/C=C\CCN(C2=O)[C@@H](Cc2ccc(C)cc2)C(=O)N(C)CC(=O)N[C@@H](CCc2ccc(C(F)(F)F)c(OC)c2)C(=O)N2C[C@H](OCC)C[C@H]2C(=O)NC2(CCC2)C(=O)N(C)[C@@H](C2CCCC2)C(=O)N(C)[C@H](C(=O)N(C)C)CC(=O)N1C [PP2534] | 195 |  |  |  | Kd [1, 5]: 4.1 nM; NRAS/KRAS (ratio of KD value with respect to GDP-bound NRAS wild-type protein to KD value with respect to KRAS) [2]: A (a compound having 10 or more and less than 20 is denoted as A); HRAS/KRAS (ratio of KD value with respect to GDP-bound HRAS wild-type protein to KD value with respect to KRAS) [3]: B (a compound having 3 or more and less than 10 is denoted as B) |
| CCC[C@H]1C(=O)N[C@@H]([C@@H](C)CC)C(=O)N(C)CC(=O)N(C)[C@H]2C/C=C\CCN(C2=O)[C@@H](Cc2ccc(C(F)(F)F)cc2)C(=O)N(C)CC(=O)N[C@@H](CCc2ccc(C(F)(F)F)c(OC)c2)C(=O)N2C[C@@H](C)C[C@H]2C(=O)N(C)C2(CCC2)C(=O)N(C)[C@@H](C2CCCC2)C(=O)N(C)[C@H](C(=O)N(C)C)CC(=O)N1C [PP2358] | 2.5 | 0.02 | A (a compound having 10 or more and less than 20 is denoted as A) | B (a compound having 3 or more and less than 10 is denoted as B) |  |
| CCOC[C@H]1C(=O)N[C@@H]([C@@H](C)CC)C(=O)N(C)CC(=O)N(C)[C@H]2C/C=C\CCN(C2=O)[C@@H](CC2CCC(F)(F)CC2)C(=O)N(C)CC(=O)N[C@@H](CCc2ccc(C(F)(F)F)c(Cl)c2)C(=O)N2C[C@@H](C)C[C@H]2C(=O)NC2(CC(C)(C)C2)C(=O)N(C)[C@@H](C(CC)CC)C(=O)N(C)[C@H](C(=O)N(C)C)CC(=O)N1C [PP2475] | 176 | 1.5 | AA (a compound having 20 or more is denoted as AA) | A (a compound having 10 or more and less than 20 is denoted as A) |  |
| CCCN1C(=O)CN(C)C(=O)CN(C)C(=O)[C@H]([C@@H](C)CC)NC(=O)[C@H](CC(C)C)N(C)C(=O)C[C@@H](C(=O)N2CCOCC2)N(C)C(=O)[C@H](C2CCCC2)N(C)C(=O)[C@](C)(COC(C)(C)C)NC(=O)[C@@H]2CCCN2C(=O)[C@H](CCc2cc(F)c(C(F)(F)F)c(F)c2)NC(=O)CN(C)C(=O)[C@@H]1Cc1ccc(C(F)(F)F)cc1 [PP0764] ([NMeL]I[Sar][Sar][NPrPhe(4-CF3)][Sar][hPhe(3,5-F2-4-CF3)]P[αMeS](tBu)[NMeGly(cPent)][NMeD]-Morpholide; lactam N-11) | 215 |  |  |  | Kd [1, 5]: 3.4 nM; NRAS/KRAS (ratio of KD value with respect to NRAS to KD value with respect to KRAS) [2, 6]: B (a compound having 3 or more and less than 10 is denoted as B); HRAS/KRAS (ratio of KD value with respect to HRAS to KD value with respect to KRAS) [3, 7]: B (a compound having 3 or more and less than 10 is denoted as B) |
